# From US6706740B2, “Fungicidal heterocyclic aromatic amides and their compositions, methods of use and preparation” (Dow AgroSciences LLC, priority 1999, dated 2004)
# Columns and labels:
# [1] = test system: Magnaporthe grisea (Pyricularia oryzae—PYRIOR); experiment: microbe, parasite or virus in culture; type: cell-based; settings: Pyricularia oryzae, read-out: PYRIOR in vitro Growth Inhibition
# [2] = test system: Rhizoctonia solani (RHIZSO); experiment: microbe, parasite or virus in culture; type: cell-based; settings: Rhizoctonia solani, read-out: RHIZSO in vitro Growth Inhibition
# [3] = test system: Mycosphaerella graminicola (Septoria tritici—SEPTTR); experiment: In vitro fungal growth inhibition, Mycosphaerella graminicola (SEPTTR); type: cell-based; settings: Zymoseptoria tritici; 25 ppm in the growth medium; read-out: SEPTTR in vitro Growth Inhibition
# [4] = test system: Stagonospora nodorum (Leptosphaeria nodorum—LEPTNO); experiment: In vitro fungal growth inhibition, Stagonospora nodorum (LEPTNO); type: cell-based; settings: Leptosphaeria; 25 ppm in the growth medium; read-out: LEPTNO in vitro Growth Inhibition
# Ustilago maydis (USTIMA) = experiment: microbe, parasite or virus in culture; type: cell-based; settings: Mycosarcoma maydis, read-out: USTIMA in vitro Growth Inhibition
# [5] = test system: Phytophthora infestans (PHYTIN); experiment: microbe, parasite or virus in culture; type: cell-based; settings: Phytophthora infestans, read-out: PHYTIN in vitro Growth Inhibition
# [6] = test system: Phytophthora infestans—PHYTIN; experiment: whole plant or invertebrate; type: in vivo; settings: for pest or weed control at 100 ppm: Phytophthora, in Solanum lycopersicum, 24 h, read-out: PHYTIN in vivo 1 Day Protectant
# [7] = test system: Puccinia recondita—PUCCRT; experiment: Brown Rust of Wheat, in vivo whole plant, 24 Hour Protectant; settings: wheat plants sprayed at 100 ppm, inoculated after 24 hours, control of fungal infection vs untreated plants; for pest or weed control at 100 ppm: Puccinia, read-out: PUCCRT in vivo 1 Day Protectant
# Erysiphe graminis—ERYSGT = experiment: Powdery Mildew of Wheat, in vivo whole plant, 24 Hour Protectant; settings: wheat plants sprayed at 100 ppm, inoculated after 24 hours, control of fungal infection vs untreated plants; for pest or weed control at 100 ppm: Erysiphe, read-out: ERYSGT in vivo 1 Day Protectant
# Septoria tritici—SEPTTR = experiment: Leaf Blotch of Wheat, in vivo whole plant, 24 Hour Protectant; settings: wheat plants sprayed at 100 ppm, inoculated after 24 hours, control of fungal infection vs untreated plants; for pest or weed control at 100 ppm: Zymoseptoria tritici, 24 h, read-out: SEPTTR in vivo 1 Day Protectant
# [8] = test system: Leptosphaeria nodorum—LEPTNO; experiment: Glume Blotch of Wheat, in vivo whole plant, 24 Hour Protectant; settings: wheat plants sprayed at 100 ppm, inoculated after 24 hours, control of fungal infection vs untreated plants; for pest or weed control at 100 ppm: Leptosphaeria, read-out: LEPTNO in vivo 1 Day Protectant
SMILES,inhibition at 25 ppm [1],inhibition at 25 ppm [2],inhibition at 25 ppm [3],inhibition at 25 ppm [4],inhibition at 25 ppm (Ustilago maydis (USTIMA)),inhibition at 25 ppm [5],pest or weed control at 100 ppm [6],pest or weed control at 100 ppm [7],pest or weed control at 100 ppm (Erysiphe graminis—ERYSGT),pest or weed control at 100 ppm (Septoria tritici—SEPTTR),pest or weed control at 100 ppm [8],"PHYTIN in vivo 1 Day Protectant ([6]; tomato plants sprayed at 100 ppm, inoculated after 24 hours, control of fungal infection vs untreated plants)",LEPTNO in vivo 1 Day Protectant [8],PUCCRT in vivo 1 Day Protectant [7],SEPTTR in vivo 1 Day Protectant (Septoria tritici—SEPTTR),ERYSGT in vivo 1 Day Protectant (Erysiphe graminis—ERYSGT)
O=C(Nc1ccc(Oc2cccc(C(F)(F)F)c2)cc1)c1nscc1O [Compound 551],< 80%,< 80%,< 80%,< 80%,< 80%,< 80%,< 25%,< 25%,25 to 74%,25 to 74%,25 to 74%,,,,,
CC(C)C(=O)O[C@H]1[C@H](C)OC(=O)[C@@H](NC(=O)c2nsnc2O)COC(=O)[C@@H]1Cc1ccccc1 [Compound 553],> 80%,> 80%,> 80%,> 80%,> 80%,> 80%,,25 to 74%,25 to 74%,25 to 74%,,+ +,+ +,,,
O=C(Nc1ccc(Oc2cccc(C(F)(F)F)c2)cc1)c1cscc1O [Compound 555],> 80%,> 80%,> 80%,> 80%,< 80%,> 80%,< 25%,< 25%,< 25%,25 to 74%,25 to 74%,,,,,
CC(=O)Oc1cccnc1C(=O)N[C@H]1COC(=O)[C@H](Cc2ccccc2)[C@@H](OC(=O)C(C)C)[C@H](C)OC1=O [Compound 568],< 80%,< 80%,> 80%,> 80%,< 80%,< 80%,< 25%,,< 25%,,,,+ +,+ +,+ +,
COCCC(=O)Oc1cccnc1C(=O)N[C@H]1COC(=O)[C@H](Cc2ccccc2)[C@@H](OC(=O)C(C)C)[C@H](C)OC1=O [Compound 569],> 80%,< 80%,> 80%,> 80%,< 80%,< 80%,25 to 74%,,< 25%,,,,+ +,+ +,+ +,
CC(=O)Oc1cccnc1C(=O)Nc1ccc(Oc2cccc(C(F)(F)F)c2)cc1 [Compound 570],> 80%,< 80%,< 80%,< 80%,< 80%,< 80%,< 25%,< 25%,,25 to 74%,25 to 74%,,,,,+ +
COc1ccnc(C(=O)NC2CC(C)(C)CC(C)(C3CC3)C2)c1OC(C)=O (stereo not drawn) [Compound 573],< 80%,< 80%,< 80%,> 80%,< 80%,< 80%,< 25%,,< 25%,25 to 74%,,,+ +,+ +,,
COc1ccnc(C(=O)NC2CC(C)(C)CC(C)(C#N)C2)c1OC(C)=O (stereo not drawn) [Compound 574],< 80%,< 80%,< 80%,< 80%,< 80%,< 80%,< 25%,< 25%,< 25%,25 to 74%,25 to 74%,,,,,
COc1ccnc(C(=O)NC2CC(C)(C)C(=O)C(C)(C)C2)c1OC(C)=O [Compound 575],< 80%,< 80%,< 80%,< 80%,< 80%,< 80%,< 25%,25 to 74%,< 25%,25 to 74%,25 to 74%,,,,,
COc1ccnc(C(=O)N[C@H]2C[C@@H](C(F)(F)F)C[C@@H](C(F)(F)F)C2)c1OC(C)=O [Compound 576],< 80%,< 80%,< 80%,< 80%,< 80%,< 80%,< 25%,25 to 74%,< 25%,25 to 74%,25 to 74%,,,,,
COc1ccnc(C(=O)N[C@@H]2C[C@@H](C(F)(F)F)C[C@@H](C(F)(F)F)C2)c1OC(C)=O [Compound 577],< 80%,< 80%,< 80%,< 80%,< 80%,< 80%,< 25%,< 25%,< 25%,25 to 74%,25 to 74%,,,,,
COc1ccnc(C(=O)NC2CC(C)(C)C=C[C@@H](C)[C@@H]2C)c1OC(C)=O (stereo partly drawn) [Compound 578],< 80%,< 80%,< 80%,< 80%,< 80%,< 80%,< 25%,< 25%,< 25%,25 to 74%,25 to 74%,,,,,
COc1ccnc(C(=O)NC2CC(C)(C)C=CC=C2C)c1OC(C)=O (stereo not drawn) [Compound 579],< 80%,< 80%,< 80%,< 80%,< 80%,< 80%,< 25%,< 25%,< 25%,,< 25%,,,,+ +,
COc1ccnc(C(=O)NC2CC(C)(C)/C=C\CC(C)(C)C2)c1OC(C)=O (stereo not drawn) [Compound 580],< 80%,< 80%,< 80%,< 80%,< 80%,< 80%,< 25%,25 to 74%,< 25%,25 to 74%,,,+ +,,,
COC(=O)C(COC(=O)C(C)c1ccccc1)NC(=O)c1nccc(OC)c1OC(C)=O (stereo not drawn) [Compound 581],< 80%,< 80%,< 80%,< 80%,< 80%,< 80%,< 25%,< 25%,< 25%,25 to 74%,25 to 74%,,,,,
COC(=O)C(COC(=O)CCc1ccccc1)NC(=O)c1nccc(OC)c1OC(C)=O (stereo not drawn) [Compound 583],< 80%,< 80%,< 80%,< 80%,< 80%,< 80%,< 25%,< 25%,< 25%,< 25%,25 to 74%,,,,,
COC(=O)C(COC(=O)COCc1ccccc1)NC(=O)c1nccc(OC)c1OC(C)=O (stereo not drawn) [Compound 585],< 80%,< 80%,< 80%,< 80%,< 80%,< 80%,< 25%,25 to 74%,< 25%,25 to 74%,25 to 74%,,,,,
COC(=O)C(COC(=O)CC(C)OC(=O)C(C)C)NC(=O)c1nccc(OC)c1OC(C)=O (stereo not drawn) [Compound 586],< 80%,< 80%,< 80%,< 80%,< 80%,< 80%,< 25%,25 to 74%,< 25%,25 to 74%,25 to 74%,,,,,
